Legend:
[1] = AUC (0 to 24 hrs) in healthy human plasma at 200 mg, po every 12 hrs for 5 days; format: ADME, organism-based; set-up: dose 200 mg, time < 24 hr, route oral
[2] = Cmax in healthy human alveolar cell at 200 mg, po every 12 hrs for 5 days; format: ADME, organism-based, Lung, Pneumocyte; set-up: dose 200 mg, route oral; details: alveolar cells
[3] = AUC (0 to 24 hrs) in healthy human lung epithelial lining fluid at 200 mg, po every 12 hrs for 5 days; format: ADME, organism-based; set-up: time < 24 hr, dose 200 mg, route oral
[4] = Cmax in healthy human plasma at 200 mg, po every 12 hrs for 5 days; format: ADME, organism-based; set-up: dose 200 mg, route oral
[5] = AUC (0 to 24 hrs) in healthy human alveolar cell at 200 mg, po every 12 hrs for 5 days; format: ADME, organism-based, Pneumocyte; set-up: time < 24 hr, dose 200 mg, route oral; details: alveolar cells
[6] = Cmax in healthy human lung epithelial lining fluid assessed as hydroxyitraconazole at 200 mg, po every 12 hrs for 5 days; format: ADME, organism-based; set-up: dose 200 mg, route oral; details: in vivo
[7] = AUC (0 to 24 hrs) in healthy human lung epithelial lining fluid assessed as hydroxyitraconazole at 200 mg, po every 12 hrs for 5 days; format: ADME, organism-based; set-up: dose 200 mg, time < 24 hr, route oral; details: in vivo
[8] = Cmax in healthy human alveolar cell assessed as hydroxyitraconazole at 200 mg, po every 12 hrs for 5 days; format: ADME, organism-based, Lung, Pneumocyte; set-up: dose 200 mg, route oral; details: in vivo
Plasma [9] = test: Cmax in healthy human plasma assessed as hydroxyitraconazole at 200 mg, po every 12 hrs for 5 days; format: ADME, organism-based; set-up: dose 200 mg, route oral; details: in vivo
[10] = Cmax in healthy human lung epithelial lining fluid at 200 mg, po every 12 hrs for 5 days; format: ADME, organism-based; set-up: dose 200 mg, route oral
[11] = AUC (0 to 24 hrs) in healthy human alveolar cell assessed as hydroxyitraconazole at 200 mg, po every 12 hrs for 5 days; format: ADME, organism-based, Pneumocyte; set-up: time < 24 hr, dose 200 mg, route oral; details: in vivo
Plasma [12] = test: AUC (0 to 24 hrs) in healthy human plasma assessed as hydroxyitraconazole at 200 mg, po every 12 hrs for 5 days; format: ADME, organism-based; set-up: time < 24 hr, dose 200 mg, route oral; details: in vivo

AUC at 24 h [1] [ng·h/mL] | Cmax [2] [ng/mL] | AUC at 24 h [3] [ng·h/mL] | Cmax [4] [ng/mL] | AUC at 24 h [5] [ng·h/mL] | Cmax [6] [ng/mL] | AUC [7] [ng·h/mL] | Cmax [8] [ng/mL] | Cmax (Plasma [9]) [ng/mL] | Cmax [10] [ng/mL] | AUC [11] [ng·h/mL] | AUC (Plasma [12]) [ng·h/mL] | SMILES
34400 | 500 | 7400 | 2100 | 101000 | 5500 |  |  |  |  |  |  | CCC(C)n1ncn(-c2ccc(N3CCN(c4ccc(OCC5COC(Cn6cncn6)(c6ccc(Cl)cc6Cl)O5)cc4)CC3)cc2)c1=O (configuration not stated) [ITRACONAZOLE]
 |  |  |  |  |  | 18900 | 6600 | 1000 | 3300 | 134000 | 60200 | CC(O)C(C)n1ncn(-c2ccc(N3CCN(c4ccc(OCC5COC(Cn6cncn6)(c6ccc(Cl)cc6Cl)O5)cc4)CC3)cc2)c1=O (configuration not stated) [HYDROXYITRACONAZOLE]

Source: ChEMBL document CHEMBL1629615, “Intrapulmonary pharmacokinetics and pharmacodynamics of posaconazole at steady state in healthy subjects” (Antimicrob Agents Chemother, 2009)
